Experimental data: patent publication US20090258836A1, “EFFECTIVE DELIVERY OF CROSS-SPECIES A3 ADENOSINE-RECEPTOR ANTAGONISTS TO REDUCE INTRAOCULAR PRESSURE” (The Trustees of The University of Pennsylvania, priority 2006, published 2009)

What was measured:
[1] = system: mouse IOP; assay: Mouse IOP after topical application, invasive servo-null micropipette system (SNMS); assay type: in vivo, Black Swiss mice
Procedure: (§1) The test animals were black Swiss outbred mice of mixed sex, 7-9 weeks old and 25-30 g in weight, obtained from Taconic Inc. (Germantown, N.Y.), and maintained under 12:12-h light/dark illumination cycle and allowed unrestricted access to food and water. Mice were anesthetized with intraperitoneal ketamine ([…]) supplemented by topical proparacaine HCl 0.5% (Allergan, Bausch & Lomb) for the IOP measurements. IOP was measured invasively (SNMS) and non-invasively by pneumotonometry in separate animals.
By the SNMS approach (Avila et al., supra, 2001), the exploring micropipette, of […] outer diameter, was filled with a highly conducting solution and advanced across the cornea into the anterior chamber. A refined technique by Wang et al., Invest. Opthalmol. Vis. Sci. (serial online) (Aug. 31, 2006) available at www.iovs.org/egi/letters/46/9/3274#422, enhanced stability and reduce the background noise of the records, permitting fabrication of micropipettes whose resistance is 0.1-0.3 MΩ, rather than the 0.25-0.4 MΩ used initially. The filling solution was reduced from 3M KCl to 2M NaCl, rather than 3 M KCl. The resistance of the filled micropipette was balanced in a bridge circuit, and the tip was then advanced across the cornea. Upon entering the anterior chamber of the eye, the IOP forces the much lower-conducting aqueous humor into the micropipette tip, displacing the original filling solution. The micropipette resistance was thereby increased, unbalancing the bridge circuit and triggering a bellows to provide a counter-pressure, restoring the position of the filling solution and returning the resistance to its initial value. Thus, the value of the counter-pressure equals the IOP. As in the past (Avila et al., supra, 2001), the stability of the records permitted continuous measurements for tens of minutes during the course of drug applications.
(§2) Ketamine HCl was purchased from Phoenix Pharmaceutical Inc. (St. Joseph, Mo.). Other drugs were obtained from Sigma Chemical (St. Louis, Mo.). Drugs were applied topically with an Eppendorf pipette. […] The final droplet solution contained the drugs at the stated concentrations together with <2% DMSO and 0.0005% benzalkonium chloride at an osmolality of 295-300 mOsm. DMSO was omitted, altogether, from droplets containing the hydrophilic compounds adenosine, carbachol and carboxyfluorescein.
(§3) Effects on invasively-measured IOP were measured 10 min after topical application because after this time, the continued presence of the micropipette can be associated with a downward drift of the IOP, even under control conditions. In contrast, smaller droplets ([…]) were applied to the eye more frequently (three times instead of once) with the non-invasive technique, in order to forestall drying of the eye associated with the airflow from the pneumotonometer. With the non-invasive protocol, the IOP was stable for 30 min under control conditions.
In Table 1, an endpoint of 10 minutes was used for the invasive measurements in light of the above-discussed downward drift of the IOP, even under control conditions. Also the need for smaller, more frequent droplets are discussed above with regard to the non-invasive technique using the pneumotonometer. As above, with the non-invasive protocol, the IOP was stable for 30 minutes under control conditions.

[2] = system: C57 mouse intraocular pressure; assay: C57 mouse intraocular pressure, invasive servo-null technique; assay type: in vivo, C57 mice
[3] = system: mouse IOP; assay: Mouse IOP after topical application, non-invasive pneumotonometry; assay type: in vivo, Black Swiss mice
Procedure: as §1
By comparison, IOP was measured non-invasively by pneumotonometry (OBT) (Avila et al., supra, 2005). As previously described, the commercially available tip of the ocular blood tomography (OBT) pneumotonometer (Blood Flow Analyzer [BFA] probe tip; Paradigm Medical Industries Inc.) was fit to a custom-built mount. Air flow from a constant pressure source was passed through the mount to reach a diaphragm forming the end of the BFA tip. The flow of air displaces the diaphragm outward, permitting escape of the air through holes in the wall of the probe tip into the atmosphere. Pressure was monitored with a transducer connected through a T-connection to the base of the BFA tip. The probe assembly was advanced to the cornea with a three-axis micromanipulator. The probe tip was advanced sufficiently to make contact with the tear film, as was indicated by a shift in the baseline output reading. In a refined method, the tip was withdrawn until the […] was visually displaced from the tear film. The output was then adjusted to zero before advancing the tip again. Contact with the cornea depresses the diaphragm of the BFA tip, occluding access of the air flow to the escape holes and raising the pressure at the base of the tip.
This approach was simplified to expedite identification of the endpoint, and the probe was subsequently advanced in about 10 standardized steps of approximately […] at intervals of about 10 seconds to identify the inflection region (Wang et al., supra, 2006). […] The pneumotonometric estimates of IOP were previously found to agree with manometric measurements in cannulated preparations and with estimates obtained by the servo-null technique (Avila et al., supra, 2005). Having established the baseline value of IOP, the position along the axis of advance of the micromanipulator was noted, and the probe was retracted from contact with the cornea. Subsequent measurements of IOP at later time points were obtained by advancing the probe tip to the same position, with the placement of the mouse maintained stereotactically. The measurements were conducted at 10-min intervals to avoid potential artifacts associated with prolonged pressure on the cornea.
as §2, §3
In Table 1, an endpoint of 10 minutes was used for the invasive measurements in light of the above-discussed downward drift of the IOP, even under control conditions. […]

## CN(C)C(=O)[C@H]1O[C@@H](n2cnc3c(NCc4cccc(I)c4)nc(Cl)nc32)[C@H](O)[C@@H]1O [MRS-3771]
[1]; servo-null, topical
  effect on mouse IOP measured invasively (in words): effective in lowering mouse IOP
[1]; tested by the inventors, technique not given
  effect on IOP in the mouse (in words): found to lower IOP in the mouse
[1]; topical droplet 250 μM (2% DMSO), endpoint 10 min
  Δ(IOP) Servo-Null: −3.0 ± 1.1 mm Hg
[2]; Mean ± SEM of 6 experiments
  IOP with MRS3771: 13.2 ± 1.6 mm Hg
  change in IOP: −3.3 ± 0.6 mm Hg
[2]; topical, N=6
  lowering of IOP of C57 mice: 3.3±0.6 mm Hg
[3]; pneumotonometry, topical, MRS-3833 at 200 nM
  effect on mouse IOP measured non-invasively (in words): exerted no effect on IOP
[3]; topical droplets 250 μM (2% DMSO), 30 min
  Δ(IOP) Pneumotonometer: +0.4 ± 0.6 mm Hg
